Experimental data reported in patent US20230064189A1, “1H-PYRAZOLO[3,4-D]PYRIMIDINE COMPOUNDS USEFUL FOR THE TREATMENT OF PLATINUM-RESISTANT CANCER” (IMPERIAL COLLEGE INNOVATIONS LIMITED, priority 2019, published 2023).
Values joined by “and” are separate entries in the source; they are usually repeats but may differ in a detail not shown here. Equal entries are not always repeated.

Tests used:
DNA-PK = DNA-PK (Homo sapiens, UniProt P78527); assay: DNA-PK enzymatic inhibition assay (HTRF KinEASE); assay type: biochemical; conditions: read-out: DNA-PK pIC50 (converted)
Protocol: The IC50 values of Example compounds of the invention for DNA-PK were measured using the HTRF KinEASE assay as described above.

AKT3 = AKT3 (Homo sapiens, UniProt Q9Y243); assay: AKT3 enzymatic inhibition assay (HTRF KinEASE); assay type: biochemical; conditions: read-out: AKT3 pIC50 (converted)
AKT3, sequence (Q9Y243 148-405 limits assumed): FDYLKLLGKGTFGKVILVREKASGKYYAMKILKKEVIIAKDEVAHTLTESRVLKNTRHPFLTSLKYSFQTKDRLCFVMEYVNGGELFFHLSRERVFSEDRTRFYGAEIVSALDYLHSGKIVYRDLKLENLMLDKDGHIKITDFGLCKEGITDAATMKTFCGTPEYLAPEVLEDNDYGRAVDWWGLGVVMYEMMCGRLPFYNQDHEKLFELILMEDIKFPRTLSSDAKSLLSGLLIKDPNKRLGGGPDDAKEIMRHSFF
Protocol: (§1) The IC50 values of Example compounds of the invention for AKT1, AKT2 and AKT3 were measured using HTRF (Homogeneous Time Resolved Fluorescence) KinEASE assays (62ST3PEB—1000 tests or 62ST3PEC—20,000 tests) from cisbio.com, according to manufacturer's instructions.

AKT1 = AKT1 (Homo sapiens, UniProt P31749); assay: AKT1 enzymatic inhibition assay (HTRF KinEASE); assay type: biochemical; conditions: read-out: AKT1 pIC50 (converted)
AKT1, sequence (P31749 150-408 limits assumed): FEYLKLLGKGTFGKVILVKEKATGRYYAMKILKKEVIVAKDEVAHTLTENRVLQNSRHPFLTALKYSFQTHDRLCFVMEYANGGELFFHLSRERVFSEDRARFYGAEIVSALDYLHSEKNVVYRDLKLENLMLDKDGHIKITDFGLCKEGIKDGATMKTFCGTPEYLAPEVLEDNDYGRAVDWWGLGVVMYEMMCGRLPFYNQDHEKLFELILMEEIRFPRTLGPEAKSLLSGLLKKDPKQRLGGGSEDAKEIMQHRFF
Protocol: as §1

AKT2 = AKT2 (Homo sapiens, UniProt P31751); assay: AKT2 enzymatic inhibition assay (HTRF KinEASE); assay type: biochemical; conditions: read-out: AKT2 pIC50 (converted)
AKT2, sequence (P31751 152-409 limits assumed): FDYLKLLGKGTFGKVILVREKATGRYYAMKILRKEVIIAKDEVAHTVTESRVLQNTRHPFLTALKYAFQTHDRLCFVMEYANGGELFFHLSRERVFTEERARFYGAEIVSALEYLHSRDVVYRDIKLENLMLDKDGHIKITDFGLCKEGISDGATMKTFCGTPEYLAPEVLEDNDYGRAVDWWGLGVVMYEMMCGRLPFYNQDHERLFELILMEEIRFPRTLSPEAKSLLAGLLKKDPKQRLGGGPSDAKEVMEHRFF
Protocol: as §1

PEO4 cells = assay: Relative re-sensitisation ratio of apoptosis induction (caspase 3/7 normalised to MTT) with cisplatin; assay type: cell-based; conditions: compound at 20 μM, triciribine at 25 μM, cisplatin 25 μM, 24 h
Protocol: Cell viability was determined for different assays (as described in FIGS. 1 and 2, Table 5) in optically clear 96 well plates using the standard 3-(4, 5-dimethylthiazol-2-yl)-2, 5-diphenyl tetrazolium bromide (MTT) assay, which is a colorimetric method for determining the number of metabolically active cells in cytotoxicity assays. MTT is bioreduced by mitochondrial dehydrogenase enzymes into a coloured solid formazan product. MTT reagent (Sigma, UK) was initially prepared by dissolving in PBS at a concentration of 3 mg/ml. Following relevant drug treatments at different time points and cell lines (described in results section and FIGS. 1 and 2), MTT reagent was added to each experimental well at a final concentration of 0.5 mg/ml. After incubation for 3 h at 37° C. 5% CO2, an equal volume of stop solution (10% SDS in 0.01% HCl) was added and formed formazan crystals were allowed to dissolve shaking overnight. The following day, the optical density was read at 570 nm and analysis performed as per each assay type.
The caspase 3/7 activity of cells following treatment with inhibitor compounds or vehicle (DMSO) was determined using the Caspase-Glo® 3/7 Assay (Catalogue number G8093, Promega, US) according to manufacturer's instructions. Briefly, 10,000 cells per well for PEO1 and PEO4 cell lines or 5000 cells per well for SKOV3 cell line were grown in 96 well plates in a final volume of 50 μl and following relevant drug treatment of cells (example compound±cisplatin, comparative example compound±cisplatin, or vehicle±cisplatin) for 24 hours, an equal volume of Caspase-Glo® Reagent containing a luminogenic substrate for Caspase 3 and Caspase 7 was added i.e. if cells cultured in 50 μl of media, 50 μl of caspase reagent was added. After 1 h incubation at room temperature in the dark, the luminescence of each sample was measured in a plate-reading luminometer (LUMIstar OPTIMA, BMG Labtech, Germany). Caspase 3/7 activity data was normalised to corresponding viability data from MTT and analysis was performed according to each experimental set-up.
. Apoptosis (caspase 3/7) and viability (MTT) assays were carried out as described for each assay protocols and the phenotypic apoptosis assays above. Relative apoptosis induction was inferred from caspase 3/7 assay values normalised to the standard MTT viability assay values of each corresponding well. […]

Structure (SMILES)	IC50 (DNA-PK)	IC50 (AKT3)	IC50 (AKT1)	IC50 (AKT2)	Relative re-sensitisation ratio of apoptosis induction (caspase 3/7) relative to triciribine phosphate (PEO4 cells)
CN(C)CCNC(=O)C(c1ccc(Cl)cc1)N1CCN(c2ncnc3[nH]nc(Br)c23)CC1 (single isomer, unassigned; (+)) [Example 3b, (+)-2-(4-(3-bromo-1H-pyrazolo[3,4-d]pyrimidin-4-yl)piperazin-1-yl)-2-(4-chlorophenyl)-N-(2-(dimethylamino)ethyl)acetamide]	10.5 nM	5.25 nM	15.1 nM	34.7 nM	1.4
CN(C)CCNC(=O)C(c1ccc(Cl)cc1)N1CCN(c2ncnc3[nH]nc(Br)c23)CC1 (single isomer, unassigned; (-)) [Example 3a, (−)-2-(4-(3-bromo-1H-pyrazolo[3,4-d]pyrimidin-4-yl)piperazin-1-yl)-2-(4-chlorophenyl)-N-(2-(dimethylamino)ethyl)acetamide]	4.9 nM and 10.7 nM		4.47 nM and 1.58 nM		2.7
CN(C)CCNC(=O)C(c1ccc(Cl)cc1)N1CCN(c2ncnc3[nH]nc(Br)c23)CC1 (stereo not shown) [Example 3, 2-(4-(3-bromo-1H-pyrazolo[3,4-d]pyrimidin-4-yl)piperazin-1-yl)-2-(4-chlorophenyl)-N-(2-(dimethylamino)ethyl)acetamide]					1.7
CN(C)C(=O)C(c1ccc(Cl)cc1)N1CCN(c2ncnc3[nH]nc(Br)c23)CC1 (stereo not shown) [Example 4, 2-(4-(3-bromo-1H-pyrazolo[3,4-d]pyrimidin-4-yl)piperazin-1-yl)-2-(4-chlorophenyl)-N,N-dimethylacetamide]	141 nM	603 nM	1350 nM	2240 nM	2.6
Cc1n[nH]c2ncnc(N3CCC(C(OCCN(C)C)c4ccc(Cl)cc4)CC3)c12 (stereo not shown) [Example 5, 2-((4-chlorophenyl)(1-(3-methyl-1H-pyrazolo[3,4-d]pyrimidin-4-yl)piperidin-4-yl)methoxy)-N,N-dimethylethan-1-amine]	7.08 nM	7.24 nM	12.6 nM	27.5 nM	2.5
CN(C)CCCOC(c1ccc(Cl)cc1)C1CCN(c2ncnc3[nH]nc(Br)c23)CC1 (stereo not shown) [Example 10, 3-((1-(3-bromo-1H-pyrazolo[3,4-d]pyrimidin-4-yl)piperidin-4-yl)(4-chlorophenyl)methoxy)-N,N-dimethylpropan-1-amine]					1.5
CN(C)CC(c1ccc(Cl)cc1)C1CCN(c2ncnc3[nH]nc(C(F)(F)F)c23)CC1 (stereo not shown) [Example 11, 2-(4-chlorophenyl)-N,N-dimethyl-2-(1-(3-(trifluoromethyl)-1H-pyrazolo[3,4-d]pyrimidin-4-yl)piperidin-4-yl)ethan-1-amine]	1.7 nM	0.316 nM	0.912 nM	1.66 nM	1.3
CN(C)CC(c1ccc(Cl)cc1)N1CCN(c2ncnc3[nH]nc(C(F)(F)F)c23)CC1 (stereo not shown) [Example 13, 2-(4-chlorophenyl)-N,N-dimethyl-2-(4-(3-(trifluoromethyl)-1H-pyrazolo[3,4-d]pyrimidin-4-yl)piperazin-1-yl)ethanamine]	1.86 nM	2.95 nM	7.08 nM	7.24 nM	1.2
CN(C)CCCC(=C1CCN(c2ncnc3[nH]nc(C(F)(F)F)c23)CC1)c1ccc(Cl)cc1 [Example 15, 4-(4-chlorophenyl)-N,N-dimethyl-4-(1-(3-(trifluoromethyl)-1H-pyrazolo[3,4-d]pyrimidin-4-yl)piperidin-4-ylidene)butan-1-amine]	12 nM	158 nM	933 nM	490 nM	1.1
COc1ccc(O)c(C(=O)c2ccc(C(=O)N[C@@H]3CCCNC[C@H]3NC(=O)c3ccncc3)cc2)c1F [Roche comp-4, N-{(3R,4R)-4-[4-(2-fluoro-6-hydroxy-3-methoxy-benzoyl)-benzoylamino]-azepan-3-yl}-isonicotinamide, reference compound]	8.51 nM	209 nM		170 nM	
CN1N=C(N)c2cn([C@@H]3O[C@H](COP(=O)(O)O)[C@@H](O)[C@H]3O)c3ncnc1c23 [Triciribine phosphate, ((2R,3S,4R,5R)-5-(3-amino-5-methyl-1,4,5,6,8-pentaazaacenaphthylen-1(5H)-yl)-3,4-dihydroxytetrahydrofuran-2-yl)methyl dihydrogen phosphate, reference compound]					1.0

Second part, led by results:

IC50 (DNA-PK)	IC50 (AKT3)	IC50 (AKT1)	IC50 (AKT2)	Structure (SMILES)	Relative re-sensitisation ratio of apoptosis induction (caspase 3/7) relative to triciribine phosphate (PEO4 cells)
6.17 nM	0.851 nM	1.32 nM	7.41 nM	CCN(CC)CCS(=O)(=O)N(c1ccc(Cl)cc1)C1CCN(c2ncnc3[nH]nc(Br)c23)CC1 [Example 6, N-(1-(3-bromo-1H-pyrazolo[3,4-d]pyrimidin-4-yl)piperidin-4-yl)-N-(4-chlorophenyl)-2-(diethylamino)ethane-1-sulfonamide]	2.3
2.75 nM	1.38 nM	0.912 nM	3.63 nM	CN(C)CC(c1ccc(Cl)cc1)C1CCN(c2ncnc3[nH]nc(Br)c23)CC1 (stereo not shown) [Example 7, 2-(1-(3-bromo-1H-pyrazolo[3,4-d]pyrimidin-4-yl)piperidin-4-yl)-2-(4-chlorophenyl)-N,N-dimethylethan-1-amine]	2.3
3.47 nM	0.955 nM	2.57 nM	6.03 nM	CN(C)CCCC(O)(c1ccc(Cl)cc1)C1CCN(c2ncnc3[nH]nc(Br)c23)CC1 (stereo not shown) [Example 8, 1-(1-(3-bromo-1H-pyrazolo[3,4-d]pyrimidin-4-yl)piperidin-4-yl)-1-(4-chlorophenyl)-4-(dimethylamino)butan-1-ol]	1.73
1.95 nM	0.676 nM	1.2 nM	2.75 nM	CN(C)CCNC(c1ccc(Cl)cc1)C1CCN(c2ncnc3[nH]nc(Br)c23)CC1 (stereo not shown) [Example 9, N^1-((1-(3-bromo-1H-pyrazolo[3,4-d]pyrimidin-4-yl)piperidin-4-yl)(4-chlorophenyl)methyl)-N^2,N^2-dimethylethane-1,2-diamine]	1.5
4.68 nM	1.29 nM	2.51 nM	6.46 nM	CN(C)CCCCC(O)(c1ccc(Cl)cc1)C1CCN(c2ncnc3[nH]nc(Br)c23)CC1 (stereo not shown) [Example 14, 1-(1-(3-bromo-1H-pyrazolo[3,4-d]pyrimidin-4-yl)piperidin-4-yl)-1-(4-chlorophenyl)-5-(dimethylamino)pentan-1-ol]	1.2
